From US10538535B2, “Antitumoral compounds” (priority 2017, dated 2020)
Like-named read-outs stand apart in the source and are kept apart here.

Assays:
HT29 cells = test: cells; conditions: for CC50: read-out: LC50
How it was run: (§1)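 SRB read-out after 72 h exposure; fixed untreated plate served as time-zero reference. Compounds ranged 10 to 0.003 μg/mL over ten 2/5 dilutions, triplicate wells, 1% final DMSO, DMEM with 10% FBS. Values via NCI algorithm, four-parameter logistic regression.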

PSN1 cells = test: cells; conditions: for CC50: read-out: LC50
How it was run: as §1

A549 cells = test: cells; conditions: for CC50: read-out: LC50
How it was run: as §1

MDA-MB-231 cells = test: cells; conditions: for CC50: read-out: LC50
How it was run: as §1

[1] = MTD (Maximum Tolerated Dose) determination, single iv administration; type: in vivo; conditions: mice, iv/SD; for MTD at 14 days: female, mouse, in vivo
From the text: (§2) Female CD-1 or Athymic Nude-Fox1 nu/nu mice (Envigo) were utilized for all experiments. […] Animals were acclimated for five days prior to being individually tattoo-identified. Animal protocols were reviewed and approved according to the regional Institutional Animal Care and Use Committees.
(§3) Mice were randomly allocated into experimental groups and intravenously administered, once for the MTD (Maximum Tolerated Dose) determination or one administration a week during three consecutive weeks, for the MTMD (Maximum Tolerated Multiple Dose) determination study. The animals were administered with white formulation or with compound dissolved in the experimental formulation at different concentrations. The volume administered was always 10 mL/kg. Once administered, animals were monitored for clinical signs of systemic toxicity, changes in body weight and mortality up to 14 days after the administration.

[2] = MTMD (Maximum Tolerated Multiple Dose) determination, iv weekly x3; type: in vivo; conditions: mice; iv/Q7dx3
From the text: as §2, §3

HT1080 tumors = test: In vivo xenograft, human fibrosarcoma HT1080; conditions: HT1080; Day 28; iv Days 0, 7, 14; 4-R 0.30 mg/kg
Experimental: Female athymic nu/nu mice (Harlan Laboratories Models, S. L. Barcelona, Spain or Envigo, Spain) were utilized for all experiments. Animal were housed in individually ventilated cages Sealsafe® Plus, Techniplast S.P.A.), up to ten per cage on a 12-hour light-dark cycle at 21-23° C. and 40-60% humidity. […] Animals were acclimated for at least 5 days prior to tumor implantation with a tumor cell suspension.
HT1080 cells were maintained in vitro at 37° C. with 5% CO2 in Minimum Essential Medium Eagle (MEME) (Sigma-Aldrich, Co). Each animal was orthotopically implanted into gastroecnemius muscle by an intramuscular injection using a 26 G needle and a 1 cc syringe at 4-6 weeks of age, with 10×10^6 HT1080 cells, suspended in serum free medium, without antibiotics.
(§4) Treatment tolerability was assessed by monitoring body weight evolution, clinical signs of systemic toxicity, as well as evidences of local damage in the injection site.
In xenograft studies with HT1080 cell line: • Total diameter (tumor+leg) measurements were determined by using digital caliper (Fowler Sylvac, S235PAT).
(§5) Treatments producing >20% lethality and/or 20% net body weight loss were considered toxic.

[3] = test system: solid and non-solid tumour cell lines; conditions: cited from earlier work
[4] = test system: xenografted human tumor cell lines (breast, kidney and ovarian cancer); conditions: xenografted human tumor cell lines in mice, such as breast; cited from earlier work
[5] = MDA-MB-231, 72 hours treatment, SRB

Experimental for DU-145 tumors: Female athymic nu/nu mice (Harlan Laboratories Models, S. L. Barcelona, Spain or Envigo, Spain) were utilized for all experiments. Animal were housed in individually ventilated cages Sealsafe® Plus, Techniplast S.P.A.), up to ten per cage on a 12-hour light-dark cycle at 21-23° C. and 40-60% humidity. Mice were allowed free access to irradiated standard rodent diet (Tecklad 2914C) and sterilized water. Animals were acclimated for at least 5 days prior to tumor implantation with a tumor cell suspension.
Culture cells were passaged every 3 to 5 days upon reaching confluence Each male athymic mice was subcutaneously implanted (on the right flank using a 26 G needle and a 1 cc syringe) at 4-6 weeks of age with 5×10^6 DU-145 cells suspended in 0.05 mL of a solution consisting of 50% Matrigel® Matrix (Corning Incorporated Life Sciences) and 50% medium without serum or antibiotics.
as §4
In xenograft studies with other cell lines: • Tumor volume was calculated using the equation (a·b^2)/2, where a: length (longest diameter) and b: width (shortest diameter) were measured in mm by using digital caliper (Fowler Sylvac, S235PAT).
as §5
Tables and figures summarize the data obtained from complete experimental groups, i.e. those groups keeping the initial number of animals, n=8-10.

In the case of `COc1ccc2[nH]c3c(c2c1)C[C@@H](CO)N[C@]31CS[C@@H]2c3c(OC(C)=O)c(C)c4c(c3[C@H](COC1=O)N1[C@@H]2[C@H]2c3c(cc(C)c(OC)c3O)C[C@@H]([C@@H]1O)N2C)OCO4` [Compound 19-S], the GI50 (HT29 cells; HT29, 72 hours treatment, SRB) is reported as 1.35 nM, the TGI (HT29 cells; HT29, 72 hours treatment, SRB) is reported as 1.60E−09 Molar and the CC50 (HT29 cells; HT29, 72 hours treatment, SRB) is reported as > 123 nM. The GI50 (PSN1 cells; PSN1, 72 hours treatment, SRB) was 2.95 nM, the TGI (PSN1 cells; PSN1, 72 hours treatment, SRB) was 3.19E−09 Molar and the CC50 (PSN1 cells; PSN1, 72 hours treatment, SRB) was > 123 nM. For the same compound, the GI50 (A549 cells; A549, 72 hours treatment, SRB) was 3.07 nM, the TGI (A549 cells; A549, 72 hours treatment, SRB) was 3.31E−09 Molar and the CC50 (A549 cells; A549, 72 hours treatment, SRB) was > 123 nM. The GI50 (MDA-MB-231 cells; [5]) was 1.96 nM, the TGI (MDA-MB-231 cells; [5]) was 3.31E−09 Molar and the CC50 (MDA-MB-231 cells; [5]) was 11 nM. For the same compound, the MTD [1] was 0.5 mg/kg and the MTMD [2] was 0.75 mg/kg.

With `COc1c(C)cc2c(c1O)[C@@H]1[C@@H]3[C@@H]4SC[C@]5(N[C@@H](CO)Cc6c5[nH]c5ccccc65)C(=O)OC[C@@H](c5c6c(c(C)c(OC(C)=O)c54)OCO6)N3[C@@H](O)[C@H](C2)N1C` [Compound 4-R] the CC50 (HT29 cells; Homo sapiens, HT-29, 72 h) was > 127 nM, the CC50 (A549 cells; Homo sapiens, A549, 72 h) was > 127 nM and the MTD at 14 days [1] was 0.25 mg/kg. The MTMD [2] was 0.30 mg/kg and the “Total diameter (tumor + leg)” value (HT1080 tumors) was 18.0 mm.

In the case of `COc1c(C)cc2c(c1O)[C@@H]1[C@@H]3[C@@H]4SC[C@]5(N[C@H](CO)Cc6c5[nH]c5ccccc65)C(=O)OC[C@@H](c5c6c(c(C)c(OC(C)=O)c54)OCO6)N3[C@@H](O)[C@H](C2)N1C` [Compound 4-S], the CC50 (HT29 cells; Homo sapiens, HT-29, 72 h) is reported as > 127 nM, the CC50 (A549 cells; Homo sapiens, A549, 72 h) is reported as > 127 nM and the “Median Tumor Volume” value (DU-145 tumors; Day 0, 4-S 1.00 mg/Kg iv Days 0, 7 and 14) is reported as 126.2 mm^3. For the same compound, the “Median Tumor Volume” value (DU-145 tumors; Day 3, 4-S 1.00 mg/Kg iv Days 0, 7 and 14) was 102.4 mm^3, the “Median Tumor Volume” value (DU-145 tumors; Day 5, 4-S 1.00 mg/Kg iv Days 0, 7 and 14) was 119.5 mm^3 and the “Median Tumor Volume” value (DU-145 tumors; Day 7, 4-S 1.00 mg/Kg iv Days 0, 7 and 14) was 149.5 mm^3. The “Median Tumor Volume” value (DU-145 tumors; Day 10, 4-S 1.00 mg/Kg iv Days 0, 7 and 14) was 216.8 mm^3, the “Median Tumor Volume” value (DU-145 tumors; Day 12, 4-S 1.00 mg/Kg iv Days 0, 7 and 14) was 181.4 mm^3 and the “Median Tumor Volume” value (DU-145 tumors; Day 14, 4-S 1.00 mg/Kg iv Days 0, 7 and 14) was 237.7 mm^3. The “Median Tumor Volume” value (DU-145 tumors; Day 17, 4-S 1.00 mg/Kg iv Days 0, 7 and 14) was 204.4 mm^3, the “Median Tumor Volume” value (DU-145 tumors; Day 19, 4-S 1.00 mg/Kg iv Days 0, 7 and 14) was 210.9 mm^3 and the “Median Tumor Volume” value (DU-145 tumors; Day 24, 4-S 1.00 mg/Kg iv Days 0, 7 and 14) was 300.0 mm^3. The “Median Tumor Volume” value (DU-145 tumors; Day 26, 4-S 1.00 mg/Kg iv Days 0, 7 and 14) was 378.4 mm^3, the “Median Tumor Volume” value (DU-145 tumors; Day 28, 4-S 1.00 mg/Kg iv Days 0, 7 and 14) was 587.0 mm^3 and the “Median Tumor Volume” value (DU-145 tumors; Day 31, 4-S 1.00 mg/Kg iv Days 0, 7 and 14) was 650.3 mm^3. The MTD at 14 days [1] was 1 mg/kg and the MTMD [2] was 1.25 mg/kg.

In the case of `COc1ccc2[nH]c3c(c2c1)CCN[C@]31CS[C@@H]2c3c(OC(C)=O)c(C)c4c(c3[C@H](COC1=O)N1[C@@H]2[C@H]2c3c(cc(C)c(OC)c3O)C[C@@H]([C@@H]1O)N2C)OCO4` [PM01183], the in vitro activity [3] is given as “highly potent in vitro activity”, the GI50 (HT29 cells; Homo sapiens, HT-29, 72 h) is given as 1.91 nM and the CC50 (HT29 cells; Homo sapiens, HT-29, 72 h) is given as > 127 nM. It also gave an IC (TGI) (HT29 cells; Homo sapiens, HT-29, 72 h, read-out: TGI) of 4.46 nM, a GI50 (PSN1 cells; Homo sapiens, PSN1, 72 h) of 3.19 nM and a CC50 (PSN1 cells; Homo sapiens, PSN1, 72 h) of 5.73 nM. The IC (TGI) (PSN1 cells; Homo sapiens, PSN1, 72 h, read-out: TGI) was 3.95 nM, the GI50 (A549 cells; Homo sapiens, A549, 72 h) was 3.31 nM and the CC50 (A549 cells; Homo sapiens, A549, 72 h) was > 127 nM. It also gave an IC (TGI) (A549 cells; Homo sapiens, A549, 72 h, read-out: TGI) of 3.57 nM, a GI50 (MDA-MB-231 cells; Homo sapiens, MDA-MB-231, 72 h) of 2.29 nM and a CC50 (MDA-MB-231 cells; Homo sapiens, MDA-MB-231, 72 h) of 10.2 nM. The IC (TGI) (MDA-MB-231 cells; Homo sapiens, MDA-MB-231, 72 h, read-out: TGI) was 3.95 nM and the in vivo activity [4] was “significant in vivo activity”.
